{"source": "ChEMBL document CHEMBL4020758", "about": "“Anti-atherosclerotic activities of flavonoids from the flowers of Helichrysum arenarium L. MOENCH through the pathway of anti-inflammation” (Bioorg Med Chem Lett, 2017)", "key": {"A7R5 [1]": {"test_system": "A7R5", "assay": "Antiproliferative activity against rat A7r5 cells at 10 uM after 24 hrs by MTT assay", "format": "functional, cell-based"}, "A7R5 [2]": {"test_system": "A7R5", "assay": "Antiproliferative activity against rat A7r5 cells at 50 uM after 24 hrs by MTT assay", "format": "functional, cell-based"}, "A7R5 [3]": {"test_system": "A7R5", "assay": "Antiproliferative activity against rat A7r5 cells at 100 uM after 24 hrs by MTT assay", "format": "functional, cell-based"}, "Thoracic aorta [4]": {"test_system": "Thoracic aorta", "assay": "Anti-atherosclerosis activity in Sprague-Dawley rat thoracic aortic vascular ring endothelial injury model assessed as reduction in vascular endothelial proliferation after 13 days by hematoxylin and eosin staining based assay", "format": "functional, tissue-based"}, "Thoracic aorta [5]": {"test_system": "Thoracic aorta", "assay": "Anti-atherosclerosis activity in Sprague-Dawley rat thoracic aortic vascular ring endothelial injury model assessed as decrease in CRP level at 50 uM by ELISA", "format": "functional, tissue-based"}, "Thoracic aorta [6]": {"test_system": "Thoracic aorta", "assay": "Anti-atherosclerosis activity in Sprague-Dawley rat thoracic aortic vascular ring endothelial injury model assessed as decrease in CRP level at 25 uM by ELISA", "format": "functional, tissue-based"}, "Thoracic aorta [7]": {"test_system": "Thoracic aorta", "assay": "Anti-atherosclerosis activity in Sprague-Dawley rat thoracic aortic vascular ring endothelial injury model assessed as decrease in VEGF level at 50 uM by ELISA", "format": "functional, tissue-based"}, "Thoracic aorta [8]": {"test_system": "Thoracic aorta", "assay": "Anti-atherosclerosis activity in Sprague-Dawley rat thoracic aortic vascular ring endothelial injury model assessed as decrease in JNK2 level at 50 uM by ELISA", "format": "functional, tissue-based"}, "RAW264.7": {"test_system": "RAW264.7", "assay": "Anti-inflammatory activity in mouse RAW264.7 cells assessed as inhibition of LPS/IFN-induced NO production at 10 to 20 uM measured 48 hrs post LPS/IFN challenge by Griess assay", "format": "functional, cell-based"}, "Thoracic aorta [9]": {"test_system": "Thoracic aorta", "assay": "Anti-atherosclerosis activity in Sprague-Dawley rat thoracic aortic vascular ring endothelial injury model assessed as decrease in p38 level at 25 to 50 uM by ELISA", "format": "functional, tissue-based"}, "Thoracic aorta [10]": {"test_system": "Thoracic aorta", "assay": "Anti-atherosclerosis activity in Sprague-Dawley rat thoracic aortic vascular ring endothelial injury model assessed as appearance of smooth vascular endothelial surface after 13 days by hematoxylin and eosin staining based assay", "format": "functional, tissue-based"}, "Thoracic aorta [11]": {"test_system": "Thoracic aorta", "assay": "Anti-atherosclerosis activity in Sprague-Dawley rat thoracic aortic vascular ring endothelial injury model assessed as decrease in CRP level by ELISA", "format": "functional, tissue-based"}, "Thoracic aorta [12]": {"test_system": "Thoracic aorta", "assay": "Anti-atherosclerosis activity in Sprague-Dawley rat thoracic aortic vascular ring endothelial injury model assessed as decrease in VEGF level at 25 uM by ELISA", "format": "functional, tissue-based"}, "Thoracic aorta [13]": {"test_system": "Thoracic aorta", "assay": "Anti-atherosclerosis activity in Sprague-Dawley rat thoracic aortic vascular ring endothelial injury model assessed as decrease in JNK2 level at 25 uM by ELISA", "format": "functional, tissue-based"}, "Thoracic aorta [14]": {"test_system": "Thoracic aorta", "assay": "Anti-atherosclerosis activity in Sprague-Dawley rat thoracic aortic vascular ring assessed as restoration of injured vessel after 13 days by hematoxylin and eosin staining based assay", "format": "functional, tissue-based"}}, "note": "Active and inactive are the calls of the source. The calls are words filed in the database; no cut-off is given here."}
{"smiles": "O=C1C[C@@H](c2ccc(O)c(O)c2)Oc2cc(O)cc(O)c21", "values": [{"measurement": "Activity", "setting": "A7R5 [1]", "value": "inactive"}, {"measurement": "Activity", "setting": "A7R5 [2]", "value": "Active"}, {"measurement": "Activity", "setting": "A7R5 [3]", "value": "inactive"}, {"measurement": "Activity", "setting": "Thoracic aorta [4]", "value": "inactive"}, {"measurement": "Activity", "setting": "Thoracic aorta [5]", "value": "Active"}, {"measurement": "Activity", "setting": "Thoracic aorta [6]", "value": "Active"}, {"measurement": "Activity", "setting": "Thoracic aorta [7]", "value": "Active"}, {"measurement": "Activity", "setting": "Thoracic aorta [8]", "value": "Active"}, {"measurement": "inhibition", "setting": "RAW264.7", "value": "Active"}, {"measurement": "Activity", "setting": "Thoracic aorta [9]", "value": "Active"}, {"measurement": "Activity", "setting": "Thoracic aorta [10]", "value": "Active"}]}
{"smiles": "O=c1cc(-c2ccc(O)c(O)c2)oc2cc(O[C@@H]3O[C@H](CO)[C@@H](O)[C@H](O)[C@H]3O)cc(O)c12", "values": [{"measurement": "Activity", "setting": "A7R5 [1]", "value": "inactive"}, {"measurement": "Activity", "setting": "A7R5 [2]", "value": "Active"}, {"measurement": "Activity", "setting": "A7R5 [3]", "value": "inactive"}, {"measurement": "Activity", "setting": "Thoracic aorta [4]", "value": "inactive"}, {"measurement": "Activity", "setting": "Thoracic aorta [5]", "value": "Active"}, {"measurement": "Activity", "setting": "Thoracic aorta [6]", "value": "Active"}, {"measurement": "Activity", "setting": "Thoracic aorta [7]", "value": "Active"}, {"measurement": "inhibition", "setting": "RAW264.7", "value": "Active"}, {"measurement": "Activity", "setting": "Thoracic aorta [10]", "value": "Active"}]}
{"smiles": "C[C@@H]1O[C@@H](O[C@H]2[C@H](Oc3cc(O)c4c(c3)O[C@H](c3ccc(O)cc3)CC4=O)O[C@H](CO)[C@@H](O)[C@@H]2O)[C@H](O)[C@H](O)[C@H]1O", "values": [{"measurement": "Activity", "setting": "A7R5 [1]", "value": "inactive"}, {"measurement": "Activity", "setting": "A7R5 [2]", "value": "inactive"}, {"measurement": "Activity", "setting": "A7R5 [3]", "value": "inactive"}, {"measurement": "Activity", "setting": "Thoracic aorta [4]", "value": "inactive"}, {"measurement": "Activity", "setting": "Thoracic aorta [5]", "value": "Active"}, {"measurement": "Activity", "setting": "Thoracic aorta [7]", "value": "Active"}, {"measurement": "Activity", "setting": "Thoracic aorta [8]", "value": "Active"}, {"measurement": "inhibition", "setting": "RAW264.7", "value": "Active"}, {"measurement": "Activity", "setting": "Thoracic aorta [9]", "value": "Active"}, {"measurement": "Activity", "setting": "Thoracic aorta [10]", "value": "Active"}]}
{"smiles": "O=c1c(O)c(-c2ccc(O)cc2)oc2cc(O)cc(O)c12", "values": [{"measurement": "Activity", "setting": "A7R5 [1]", "value": "inactive"}, {"measurement": "Activity", "setting": "A7R5 [2]", "value": "Active"}, {"measurement": "Activity", "setting": "A7R5 [3]", "value": "inactive"}, {"measurement": "Activity", "setting": "Thoracic aorta [4]", "value": "inactive"}, {"measurement": "Activity", "setting": "Thoracic aorta [5]", "value": "Active"}, {"measurement": "Activity", "setting": "Thoracic aorta [6]", "value": "Active"}, {"measurement": "Activity", "setting": "Thoracic aorta [11]", "value": "Dose-dependent effect"}, {"measurement": "Activity", "setting": "Thoracic aorta [7]", "value": "Active"}, {"measurement": "Activity", "setting": "Thoracic aorta [12]", "value": "Active"}, {"measurement": "Activity", "setting": "Thoracic aorta [8]", "value": "Active"}, {"measurement": "Activity", "setting": "Thoracic aorta [13]", "value": "Active"}, {"measurement": "inhibition", "setting": "RAW264.7", "value": "Active"}, {"measurement": "Activity", "setting": "Thoracic aorta [10]", "value": "Active"}]}
{"smiles": "O=c1cc(-c2ccc(O)c(O)c2)oc2cc(O)cc(O)c12", "values": [{"measurement": "Activity", "setting": "A7R5 [1]", "value": "inactive"}, {"measurement": "Activity", "setting": "A7R5 [2]", "value": "inactive"}, {"measurement": "Activity", "setting": "A7R5 [3]", "value": "inactive"}, {"measurement": "Activity", "setting": "Thoracic aorta [4]", "value": "inactive"}, {"measurement": "Activity", "setting": "Thoracic aorta [5]", "value": "Active"}, {"measurement": "Activity", "setting": "Thoracic aorta [6]", "value": "Active"}, {"measurement": "Activity", "setting": "Thoracic aorta [7]", "value": "Active"}, {"measurement": "Activity", "setting": "Thoracic aorta [12]", "value": "Active"}, {"measurement": "inhibition", "setting": "RAW264.7", "value": "Active"}, {"measurement": "Activity", "setting": "Thoracic aorta [10]", "value": "Active"}]}
{"smiles": "O=c1c(O[C@@H]2O[C@H](CO)[C@@H](O)[C@H](O)[C@H]2O)c(-c2ccc(O)cc2)oc2cc(O)cc(O)c12", "values": [{"measurement": "Activity", "setting": "A7R5 [1]", "value": "inactive"}, {"measurement": "Activity", "setting": "A7R5 [2]", "value": "Active"}, {"measurement": "Activity", "setting": "A7R5 [3]", "value": "inactive"}, {"measurement": "Activity", "setting": "Thoracic aorta [4]", "value": "Active"}, {"measurement": "Activity", "setting": "Thoracic aorta [5]", "value": "Active"}, {"measurement": "Activity", "setting": "Thoracic aorta [6]", "value": "Active"}, {"measurement": "Activity", "setting": "Thoracic aorta [7]", "value": "Active"}, {"measurement": "Activity", "setting": "Thoracic aorta [8]", "value": "Active"}, {"measurement": "inhibition", "setting": "RAW264.7", "value": "Active"}, {"measurement": "Activity", "setting": "Thoracic aorta [14]", "value": "Active"}, {"measurement": "Activity", "setting": "Thoracic aorta [10]", "value": "Active"}]}
{"smiles": "C[C@@H]1O[C@@H](OC[C@H]2O[C@@H](Oc3cc(O)c4c(c3)O[C@H](c3ccc(O)cc3)CC4=O)[C@H](O)[C@@H](O)[C@@H]2O)[C@H](O)[C@H](O)[C@H]1O", "values": [{"measurement": "Activity", "setting": "A7R5 [1]", "value": "inactive"}, {"measurement": "Activity", "setting": "A7R5 [2]", "value": "inactive"}, {"measurement": "Activity", "setting": "A7R5 [3]", "value": "inactive"}, {"measurement": "Activity", "setting": "Thoracic aorta [4]", "value": "inactive"}, {"measurement": "Activity", "setting": "Thoracic aorta [5]", "value": "Active"}, {"measurement": "Activity", "setting": "Thoracic aorta [7]", "value": "Active"}, {"measurement": "inhibition", "setting": "RAW264.7", "value": "Active"}, {"measurement": "Activity", "setting": "Thoracic aorta [9]", "value": "Active"}, {"measurement": "Activity", "setting": "Thoracic aorta [10]", "value": "Active"}]}
